Reference: PMC11642016 (International Journal of Molecular Sciences, 2024)
Where “and” joins values, the source holds several entries; their conditions need not be identical. Identical values can stand only once.

Experiments:
PANC-1 cells [1] = assay: Colony formation (clonogenic) assay; format: cell-based, human; settings: 4 µM
[2] = CellTiter-Glo cell viability assay, HEK293T CLPP−/− (ClpP dependence); settings: human, HEK293T CLPP−/− cells, HEK293T CLPP-/- Cell viability (% of controll), 72 h, dose–response, individual replicates;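 note: CellTiter-Glo luminescent signal read on a microplate reader once HEK293T CLPP−/− cells had been exposed to compounds for 72 h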
Description: (§1) Primary fibroblast cultures were prepared from human skin biopsies and maintained in DMEM supplemented with 10% FBS, 1% penicillin-streptomycin, and 1% MEM Non-Essential Amino Acids Solution (Thermo Fisher Scientific). […] All cell lines were cultured in a humidified atmosphere at 37 °C and 5% CO2, passaged twice a week, and the experiments were performed on cells between passage 5 and 15. The cell lines were routinely screened for the absence of mycoplasma infection (DAPI staining).
(§2) The effects of the synthesized compounds on cell viability were measured using the CellTiter-Glo® luminescent cell viability assay (Promega, Madison, WI, USA), according to the manufacturer’s instructions. Briefly, cells were seeded onto a flat-bottomed, white 96-well plate (BRANDplates, cat. no.: 781965)), with the following densities: PANC-1: 750 cells/well, Fadu: 2000 cells/well, primary fibroblasts: 2000 cells/well, HEK293T WT: 1000 cells/well, HEK293T CLPP^−/−: 2500 cells/well. After seeding, cells were incubated for a further 48 h before treatment. Cells were treated with the compounds for 72 h. Three concentrations (25.0 µM; 8.3 µM; 2.8 µM) were applied during the initial cell viability screening, while for the determination of dose–response curves, 1.5-fold serially diluted compound concentrations were applied (range: 26 µM–0.7 µM). After treatment, the luminescence signal was recorded using a microplate reader (BioTek Synergy 2 Multi-Mode Reader, BioTek, Winooski, VT, USA).
(§3) Data analysis was performed using GraphPad Prism 9.5.0 software (GraphPad Software, San Diego, CA, USA). […] The dose–response curves were generated by four-parameter nonlinear regression, and the IC50 values were determined as the means ± SEM of the best-fit values of 3 independent measurements. The R^2 values were consistently above 0.93, indicating a strong fit of the model to the experimental data (Supplementary S.89). […] Dunnett’s post hoc test was applied to adjust for multiple comparisons, minimizing the likelihood of false positive results. Assumptions for ANOVA, including normality (assessed via QQ plots) and homogeneity of variance (tested using the Brown–Forsythe test), were verified. The following significance levels were applied: * p < 0.05, ** p < 0.01, *** p < 0.001, **** p < 0.0001. […] The tumor selectivity of the compounds was quantitatively characterized by the selectivity index (SI). This parameter was calculated as the ratio of the average best-fit IC50 value for primary fibroblasts and the best-fit IC50 value for the corresponding tumor cells (PANC-1 or Fadu).

Fadu cells = assay: CellTiter-Glo luminescent cell viability assay, Fadu
PANC-1 cells [3] = assay: CellTiter-Glo luminescent cell viability assay, PANC-1
Description: as §1, §2, §3

[4] = 0.7 μM, 72 h, dose–response, individual replicates
[5] = 1 μM, 72 h, dose–response, individual replicates
[6] = 1.5 μM, 72 h, dose–response, individual replicates
[7] = 2.3 μM, 72 h, dose–response, individual replicates
[8] = 3.4 μM, 72 h, dose–response, individual replicates
[9] = 5.1 μM, 72 h, dose–response, individual replicates
[10] = 7.7 μM, 72 h, dose–response, individual replicates
[11] = 17.3 μM, 72 h, dose–response, individual replicates
[12] = 26 μM, 72 h, dose–response, individual replicates

CNCC#Cc1cccc(CN2C(=O)C3=C(CCN(Cc4ccc(-n5cc(-c6ccccc6)nn5)cc4)C3)N3CCN=C23)c1 [38b]
viable cells / colonies after shorter exposure (PANC-1 cells [1]; 24 h treatment followed by 5 days post-incubation): left only traces of viable cells | viable cells / colonies after longer exposure (PANC-1 cells [1]; 72 h treatment followed by 3 days post-incubation): no viable cells were discernible | viability at 72 h, 0.4 µM ([2]; 0.4 μM): 113% | viability at 72 h, 0.6 µM ([2]; 0.6 μM): 117% | viability at 72 h, 1 µM ([2]; 1.0 μM): 118% | viability at 72 h, 1.6 µM ([2]; 1.6 μM): 100% | viability at 72 h, 6.4 µM ([2]; 6.4 μM): 0% | viability at 72 h, 16.25 µM ([2]; 16.25 μM): 0% | viability at 72 h, 26 µM ([2]; 26 μM): 0% | Fadu Cell viability (% of controll) (Fadu cells; [4]): 108 % of controll and 109 % of controll | Fadu Cell viability (% of controll) (Fadu cells; [5]): 109 % of controll and 105 % of controll | Fadu Cell viability (% of controll) (Fadu cells; [6]): 105 % of controll and 106 % of controll | Fadu Cell viability (% of controll) (Fadu cells; [7]): 99 % of controll and 98 % of controll | Fadu Cell viability (% of controll) (Fadu cells; [8]): 70 % of controll and 37 % of controll and 29 % of controll | Fadu Cell viability (% of controll) (Fadu cells; [9]): 10 % of controll and 1 % of controll and 2 % of controll | Fadu Cell viability (% of controll) (Fadu cells; [10]): 0 % of controll | Fadu Cell viability (% of controll) (Fadu cells; [11]): 0 % of controll | Fadu Cell viability (% of controll) (Fadu cells; [12]): 0 % of controll | viability at 2.8 µM (Fadu cells; Homo sapiens, FaDu, 72 h, read-out: Cell Viability (% of Control) 2.8 µM, Fadu, 2.8 µM, 72 h, second-set screening, mean ± SD, n = 2): 91 ± 17% | viability at 8.3 µM (Fadu cells; Homo sapiens, FaDu, 72 h, read-out: Cell Viability (% of Control) 8.3 µM, Fadu, 8.3 µM, 72 h, second-set screening, mean ± SD, n = 2): 0% | viability at 25 µM (Fadu cells; Homo sapiens, FaDu, 72 h, read-out: Cell Viability (% of Control) 25 µM, Fadu, 25 µM, 72 h, second-set screening, mean ± SD, n = 2): 0% | viability at 0.7 µM (Fadu cells; Homo sapiens, FaDu, 72 h, read-out: Fadu Cell viability (% of controll), 0.7 μM, 72 h, dose–response, individual replicates): 103% | viability at 1 µM (Fadu cells; Homo sapiens, FaDu, 72 h, read-out: Fadu Cell viability (% of controll), 1 μM, 72 h, dose–response, individual replicates): 113% | viability at 1.5 µM (Fadu cells; Homo sapiens, FaDu, 72 h, read-out: Fadu Cell viability (% of controll), 1.5 μM, 72 h, dose–response, individual replicates): 104% | viability at 2.3 µM (Fadu cells; Homo sapiens, FaDu, 72 h, read-out: Fadu Cell viability (% of controll), 2.3 μM, 72 h, dose–response, individual replicates): 104% | viability at 7.7 µM (Fadu cells; Homo sapiens, FaDu, 72 h, read-out: Fadu Cell viability (% of controll), 7.7 μM, 72 h, dose–response, individual replicates): 0% | viability at 17.3 µM (Fadu cells; Homo sapiens, FaDu, 72 h, read-out: Fadu Cell viability (% of controll), 17.3 μM, 72 h, dose–response, individual replicates): 0% | viability at 26 µM (Fadu cells; Homo sapiens, FaDu, 72 h, read-out: Fadu Cell viability (% of controll), 26 μM, 72 h, dose–response, individual replicates): 0% | IC50 (Fadu cells; Homo sapiens, FaDu, 72 h, read-out: IC50 Value ± SEM Fadu, 72 h treatment, best-fit values, n = 3): 3300 ± 70 nM | Selectivity Index (SI) Fibroblast/Fadu (Fadu cells; ratio of mean best-fit IC50 for primary fibroblasts and best-fit IC50 for Fadu): 1.3 | PANC-1 Cell viability (% of controll) (PANC-1 cells [3]; [4]): 103 % of controll | PANC-1 Cell viability (% of controll) (PANC-1 cells [3]; [5]): 108 % of controll | PANC-1 Cell viability (% of controll) (PANC-1 cells [3]; [6]): 107 % of controll and 116 % of controll | PANC-1 Cell viability (% of controll) (PANC-1 cells [3]; [7]): 79 % of controll and 98 % of controll | PANC-1 Cell viability (% of controll) (PANC-1 cells [3]; [8]): 0 % of controll and 1 % of controll | PANC-1 Cell viability (% of controll) (PANC-1 cells [3]; [9]): 0 % of controll | PANC-1 Cell viability (% of controll) (PANC-1 cells [3]; [10]): 0 % of controll | PANC-1 Cell viability (% of controll) (PANC-1 cells [3]; [11]): 0 % of controll | PANC-1 Cell viability (% of controll) (PANC-1 cells [3]; [12]): 0 % of controll | viability at 2.8 µM (PANC-1 cells [3]; Homo sapiens, PANC-1, 72 h, read-out: Cell Viability (% of Control) 2.8 µM, PANC-1, 2.8 µM, 72 h, second-set screening, mean ± SD, n = 2): 6 ± 6% | viability at 8.3 µM (PANC-1 cells [3]; Homo sapiens, PANC-1, 72 h, read-out: Cell Viability (% of Control) 8.3 µM, PANC-1, 8.3 µM, 72 h, second-set screening, mean ± SD, n = 2): 0% | viability at 25 µM (PANC-1 cells [3]; Homo sapiens, PANC-1, 72 h, read-out: Cell Viability (% of Control) 25 µM, PANC-1, 25 µM, 72 h, second-set screening, mean ± SD, n = 2): 0% | IC50 (PANC-1 cells [3]; Homo sapiens, PANC-1, 72 h, read-out: IC50 Value ± SEM PANC-1, 72 h treatment, best-fit values, n = 3): 2500 ± 230 nM | viability at 0.7 µM (PANC-1 cells [3]; Homo sapiens, PANC-1, 72 h, read-out: PANC-1 Cell viability (% of controll), 0.7 μM, 72 h, dose–response, individual replicates): 110% | viability at 1 µM (PANC-1 cells [3]; Homo sapiens, PANC-1, 72 h, read-out: PANC-1 Cell viability (% of controll), 1 μM, 72 h, dose–response, individual replicates): 110% | viability at 1.5 µM (PANC-1 cells [3]; Homo sapiens, PANC-1, 72 h, read-out: PANC-1 Cell viability (% of controll), 1.5 μM, 72 h, dose–response, individual replicates): 109% | viability at 2.3 µM (PANC-1 cells [3]; Homo sapiens, PANC-1, 72 h, read-out: PANC-1 Cell viability (% of controll), 2.3 μM, 72 h, dose–response, individual replicates): 81%
